≈ marks a conversion by molar mass, not a printed value.
How the values were obtained:
[1] = Partition coefficient (logP); format: physicochemical; settings: octanol/water
Enterococcus faecalis [2] = test: Minimum inhibitory activity against Enterococcus faecalis GC 4555 (ATCC); format: functional
Staphylococcus aureus [3] = test: Minimum inhibitory activity against Staphylococcus aureus GC 1131 (MRSA); format: functional
[4] = Minimum inhibitory activity against Streptococcus pneumoniae GC1894 (PRSP); format: functional
Staphylococcus aureus [5] = test: Minimum inhibitory activity against Staphylococcus aureus GC 2216 (ATCC); format: functional
Staphylococcus aureus [6] = test: Minimum inhibitory activity against Staphylococcus aureus GC 4543 (MSSA); format: functional
Enterococcus faecalis [7] = test: Minimum inhibitory activity against Enterococcus faecalis GC 2242 (VRE); format: functional
[8] = target: T1, UDP-N-acetylmuramate--L-alanine ligase (Staphylococcus aureus, UniProt O31211); test: In vitro inhibitory activity against Staphylococcus aureus UDP-N-acetylmuramoyl-L-alanine synthetase
T1 sequence (O31211 whole entry): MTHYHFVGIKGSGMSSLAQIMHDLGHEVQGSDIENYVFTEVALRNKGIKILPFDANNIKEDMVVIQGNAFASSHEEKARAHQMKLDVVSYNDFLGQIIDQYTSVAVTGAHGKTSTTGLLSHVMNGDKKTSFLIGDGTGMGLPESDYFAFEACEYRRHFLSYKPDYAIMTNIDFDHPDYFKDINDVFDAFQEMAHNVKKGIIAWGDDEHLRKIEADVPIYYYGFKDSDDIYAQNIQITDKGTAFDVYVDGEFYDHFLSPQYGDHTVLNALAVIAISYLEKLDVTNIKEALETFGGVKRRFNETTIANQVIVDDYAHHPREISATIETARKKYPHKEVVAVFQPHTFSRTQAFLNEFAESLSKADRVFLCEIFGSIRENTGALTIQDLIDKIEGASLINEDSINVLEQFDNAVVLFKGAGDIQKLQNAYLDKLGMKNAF

Escherichia coli [9] = test: Minimum inhibitory activity against Escherichia coli GC 4560; format: functional
[10] = Minimum inhibitory activity in presence of 4% bovine serum albumin against Streptococcus pneumoniae GC1894 (PRSP); format: functional
[11] = target: T2, UDP-N-acetylmuramoylalanine--D-glutamate ligase (Staphylococcus aureus, UniProt P0A091); test: In vitro inhibitory activity against Staphylococcus aureus UDP-N-acetylmuramoyl-L-alanyl-D-glutamate synthetase
T2 sequence (P0A091 whole entry): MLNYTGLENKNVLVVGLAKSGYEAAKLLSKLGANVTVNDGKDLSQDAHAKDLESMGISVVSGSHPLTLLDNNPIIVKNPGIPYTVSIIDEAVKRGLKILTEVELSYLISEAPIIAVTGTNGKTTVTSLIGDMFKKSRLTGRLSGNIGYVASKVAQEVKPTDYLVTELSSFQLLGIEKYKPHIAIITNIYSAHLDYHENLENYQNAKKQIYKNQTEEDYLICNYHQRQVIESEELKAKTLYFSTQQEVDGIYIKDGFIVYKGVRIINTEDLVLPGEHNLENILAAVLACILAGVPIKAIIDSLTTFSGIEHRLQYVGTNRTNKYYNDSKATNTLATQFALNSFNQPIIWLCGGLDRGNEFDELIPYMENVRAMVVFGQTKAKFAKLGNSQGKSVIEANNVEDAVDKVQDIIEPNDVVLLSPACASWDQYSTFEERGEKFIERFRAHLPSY

[12] = Minimum inhibitory activity against MSCNS GC 646; format: functional
[13] = target: T3, UDP-N-acetylenolpyruvoylglucosamine reductase (Staphylococcus aureus, UniProt P61431); test: In vitro inhibitory activity against Staphylococcus aureus UDP-N-acetylmuramate dehydrogenase
T3 sequence (P61431 whole entry): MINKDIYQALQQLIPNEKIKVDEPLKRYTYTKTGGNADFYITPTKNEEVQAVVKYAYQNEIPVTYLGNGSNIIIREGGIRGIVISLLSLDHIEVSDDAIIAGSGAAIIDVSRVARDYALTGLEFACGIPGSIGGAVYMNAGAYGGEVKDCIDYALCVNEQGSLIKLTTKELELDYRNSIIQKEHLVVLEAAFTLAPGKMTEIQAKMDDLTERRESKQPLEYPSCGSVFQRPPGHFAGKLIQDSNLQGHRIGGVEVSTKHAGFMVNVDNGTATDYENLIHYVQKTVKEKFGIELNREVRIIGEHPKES

Escherichia coli [14] = test: Minimum inhibitory activity against Escherichia coli GC 4559; format: functional
Bacteria = test: Minimum inhibitory activity against gram negative bacteria; format: functional

SMILES	logP [1]	MIC (Enterococcus faecalis [2]) [µg/mL]	MIC (Staphylococcus aureus [3]) [µg/mL]	MIC [4] [µg/mL]	MIC (Staphylococcus aureus [5]) [µg/mL]	MIC (Staphylococcus aureus [6]) [µg/mL]	MIC (Enterococcus faecalis [7]) [µg/mL]	IC50 [8] [µM]	MIC (Escherichia coli [9]) [µg/mL]	MIC [10] [µg/mL]	IC50 [11] [µM]	MIC ([12]; Staphylococcus) [µg/mL]	IC50 [13] [µM]	MIC (Escherichia coli [14]) [µg/mL]	MIC (Bacteria) [µg/mL]	MIC [12] [µg/mL]
Oc1c2c(nn1-c1ccc(Cl)cc1)CCS2	3.06	16 (≈ 63.3 µM)	16 (≈ 63.3 µM)	1 (≈ 3.96 µM)	2 (≈ 7.91 µM)	2 (≈ 7.91 µM)	16 (≈ 63.3 µM)	40	> 128	> 128	45.5	4 (≈ 15.8 µM)	28.1	> 128	–	–
Oc1c2c(nn1-c1ccc(F)cc1)CCS2	–	8 (≈ 33.9 µM)	2 (≈ 8.46 µM)	2 (≈ 8.46 µM)	2 (≈ 8.46 µM)	4 (≈ 16.9 µM)	8 (≈ 33.9 µM)	> 106	32 (≈ 135 µM)	> 128	> 106	0.25 (≈ 1.06 µM)	50.8	> 128	–	–
Oc1c2c(nn1-c1ccc(Cl)c(Cl)c1)CSC2	–	–	–	–	–	–	–	–	–	–	–	–	> 87.1	–	32 (≈ 111 µM)	–
Oc1c2c(nn1-c1ccccc1C(F)(F)F)CCS2	–	32 (≈ 112 µM)	32 (≈ 112 µM)	8 (≈ 27.9 µM)	32 (≈ 112 µM)	32 (≈ 112 µM)	16 (≈ 55.9 µM)	> 87.3	128 (≈ 447 µM)	> 128	> 87.3	64 (≈ 224 µM)	> 87.3	> 128	–	–
Oc1c2c(nn1-c1ccccc1)CCS2	–	32 (≈ 147 µM)	16 (≈ 73.3 µM)	4 (≈ 18.3 µM)	16 (≈ 73.3 µM)	32 (≈ 147 µM)	4 (≈ 18.3 µM)	> 115	> 128	> 128	94.8	–	> 115	> 128	–	16 (≈ 73.3 µM)
Oc1c2c(nn1-c1cc(C(F)(F)F)cc(C(F)(F)F)c1)CCS2	–	32 (≈ 90.3 µM)	32 (≈ 90.3 µM)	2 (≈ 5.65 µM)	32 (≈ 90.3 µM)	32 (≈ 90.3 µM)	16 (≈ 45.2 µM)	> 70.6	> 128	> 128	> 70.6	> 128	> 70.6	> 128	–	–
O=[N+]([O-])c1cccc(-n2nc3c(c2O)SCC3)c1	–	64 (≈ 243 µM)	32 (≈ 122 µM)	4 (≈ 15.2 µM)	16 (≈ 60.8 µM)	32 (≈ 122 µM)	32 (≈ 122 µM)	87.7	> 128	> 128	34.6	32 (≈ 122 µM)	23.5	> 128	–	–
Oc1c2c(nn1-c1cccc(Cl)c1)CCS2	–	32 (≈ 127 µM)	32 (≈ 127 µM)	2 (≈ 7.91 µM)	8 (≈ 31.7 µM)	32 (≈ 127 µM)	8 (≈ 31.7 µM)	62.5	> 128	> 128	32.8	32 (≈ 127 µM)	> 98.9	> 128	–	–
CC1Cc2nn(-c3ccc(Cl)cc3)c(O)c2S1 (stereo not drawn)	–	32 (≈ 120 µM)	16 (≈ 60 µM)	4 (≈ 15 µM)	32 (≈ 120 µM)	16 (≈ 60 µM)	2 (≈ 7.5 µM)	> 93.7	> 128	> 128	64.1	16 (≈ 60 µM)	> 93.7	> 128	–	–
N#Cc1ccc(-n2nc3c(c2O)SCC3)cc1	2.53	8 (≈ 32.9 µM)	32 (≈ 132 µM)	4 (≈ 16.4 µM)	8 (≈ 32.9 µM)	16 (≈ 65.8 µM)	8 (≈ 32.9 µM)	> 103	64 (≈ 263 µM)	> 128	49.3	4 (≈ 16.4 µM)	> 103	> 128	–	–
Oc1c2c(nn1-c1ccc(Cl)cc1)CSC2	–	–	–	–	–	–	–	–	–	–	–	–	831	–	> 128	–
CN[C@H](CC(C)C)C(=O)N[C@H]1C(=O)N[C@@H](CC(N)=O)C(=O)N[C@H]2C(=O)N[C@H]3C(=O)N[C@H](C(=O)N[C@H](C(=O)O)c4cc(O)cc(O)c4-c4cc3ccc4O)[C@H](O)c3ccc(c(Cl)c3)Oc3cc2cc(c3O[C@@H]2O[C@H](CO)[C@@H](O)[C@H](O)[C@H]2O[C@H]2C[C@](C)(N)[C@H](O)[C@H](C)O2)Oc2ccc(cc2Cl)[C@H]1O [VANCOMYCIN]	–	2 (≈ 1.38 µM)	–	< 0.12	–	–	> 128	–	0.25 (≈ 0.173 µM)	–	–	–	–	> 128	–	–
